Experimental findings from US11845724B2, “USP30 inhibitors and uses thereof” (Vincere Biosciences, Inc., priority 2019, dated 2023) are described below.

The target of experiment [1] is USP30 (Homo sapiens (Human), UniProt Q70CQ3). Nature of the experiment: Dundee MALDI-TOF mass spectrometry assay (IC50). Format: biochemical. The settings on record: USP30 25 ng/μl, K48-linked diubiquitin 5.6 μM, avg, read-out: Dundee IC50 μM (avg in vitro MS assay). The procedure:
Compounds were tested in a MALDI-TOF assay based on the paper by Ritorto et al. (Ritorto et al. Screening of DUB activity and specificity by MALDI-TOF mass spectrometry. Nat. […] USP30 (25 ng/μl) tested against K48-linked diubiquitin (5.6 μM). USP30 was diluted in a buffer containing 40 mM Tris, 0.01% BSA, 1 mM DTT and K48 in 40 mM Tris, 0.01% BSA. The compounds were pre-incubated with the USP30 for 5 mins at room temp before the K48 dimer addition. The assay mixture was then incubated for 45 mins at room temp. The assay was stopped by the addition of TFA to a final concentration of 2% (v/v). […] Then 250 nl of these solutions were spotted onto an MTP AnchorChip 1,536 TF and this is analysed on the Bruker rapifleX MALDI-TOF.

Experiment [2] deals with recombinant USP30 (amino acids 57-517 of the human sequence) (Homo sapiens (Human), UniProt Q70CQ3). As to the kind of experiment: In vitro USP30 biochemical assay (Ubiquitin-Rhodamine).
The mark [3] stands for this setting: USP30 IC50 μM (avg), Ubiquitin-Rhodamine substrate 25 nM, 1.5 nM recombinant USP30.
Where [4] appears, read: read-out: USP30 IC50 μM (avg), Ubiquitin-Rhodamine substrate 25 nM, 1.5 nM recombinant USP30.

Where two headings read alike, the source gives them in different places. Where only a bound is given, the exact number is not on record here.

USP30, sequence (Q70CQ3 whole entry): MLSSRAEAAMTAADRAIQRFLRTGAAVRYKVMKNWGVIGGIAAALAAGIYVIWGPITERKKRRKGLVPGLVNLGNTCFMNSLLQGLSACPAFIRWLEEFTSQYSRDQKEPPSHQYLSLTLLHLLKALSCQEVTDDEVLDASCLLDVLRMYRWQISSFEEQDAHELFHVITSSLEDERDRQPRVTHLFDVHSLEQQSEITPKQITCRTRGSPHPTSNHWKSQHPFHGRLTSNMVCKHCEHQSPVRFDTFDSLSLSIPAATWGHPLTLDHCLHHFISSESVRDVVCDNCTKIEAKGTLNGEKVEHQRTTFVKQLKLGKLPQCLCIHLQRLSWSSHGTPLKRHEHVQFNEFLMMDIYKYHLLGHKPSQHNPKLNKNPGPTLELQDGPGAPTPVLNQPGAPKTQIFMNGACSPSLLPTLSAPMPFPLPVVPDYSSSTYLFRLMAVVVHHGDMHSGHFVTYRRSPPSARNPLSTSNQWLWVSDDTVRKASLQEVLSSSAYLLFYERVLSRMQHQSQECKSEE
recombinant USP30 (amino acids 57-517 of the human sequence), sequence (Q70CQ3 57-517): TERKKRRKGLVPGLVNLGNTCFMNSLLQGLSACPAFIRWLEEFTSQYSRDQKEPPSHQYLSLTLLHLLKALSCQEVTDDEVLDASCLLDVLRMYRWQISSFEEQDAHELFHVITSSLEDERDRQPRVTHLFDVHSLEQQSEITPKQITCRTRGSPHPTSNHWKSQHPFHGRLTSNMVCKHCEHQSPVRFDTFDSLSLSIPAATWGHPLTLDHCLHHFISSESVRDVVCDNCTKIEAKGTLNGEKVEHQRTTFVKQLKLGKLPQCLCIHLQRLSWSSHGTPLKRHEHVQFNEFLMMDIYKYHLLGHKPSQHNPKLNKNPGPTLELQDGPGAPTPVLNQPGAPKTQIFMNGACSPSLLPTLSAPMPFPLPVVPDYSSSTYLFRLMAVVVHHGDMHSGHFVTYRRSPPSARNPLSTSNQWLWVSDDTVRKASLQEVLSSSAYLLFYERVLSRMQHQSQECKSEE

On to `CCNS(=O)(=O)c1ccc(NC(=O)[C@H](Cc2ccccc2)NC(=O)c2ccc(F)cc2)cc1` [Compound I-5, (S)-N-(1-(4-(N-Ethylsulfamoyl)phenylamino)-1-oxo-3-phenylpropan-2-yl)-4-fluorobenzamide], for which the IC50 is under 0.05 µM in experiment [1] and 0.05 to 1 µM in experiment [2] (setting [3]).
`CC(C)(CF)NS(=O)(=O)c1ccc(NC(=O)[C@H](Cc2ccccc2)NC(=O)c2ccc(F)cc2)cc1` [Compound I-10, (S)-4-Fluoro-N-(1-(4-(N-(1-fluoro-2-methylpropan-2-yl)sulfamoyl)phenylamino)-1-oxo-3-phenylpropan-2-yl)benzamide]: the IC50 in experiment [1] and in experiment [2] (setting [4]) was under 0.05 µM each time.
With `C[C@H](NS(=O)(=O)c1ccc(NC(=O)[C@H](Cc2ccccc2)NC(=O)c2ccc(F)cc2)cc1)C(F)(F)F` [Compound I-13, 4-fluoro-N-((S)-1-oxo-3-phenyl-1-(4-(N-((S)-1,1,1-trifluoropropan-2-yl)sulfamoyl)phenylamino)propan-2-yl)benzamide], the figures for the IC50 in experiment [1] and in experiment [2] (setting [3]) were under 0.05 µM and 0.05 to 1 µM, respectively.
As to `O=C(N[C@@H](Cc1ccccc1)C(=O)Nc1ccc(S(=O)(=O)NCC(F)(F)F)cc1)c1ccc(F)cc1` [Compound I-23, (S)-4-fluoro-N-(1-oxo-3-phenyl-1-(4-(N-(2,2,2-trifluoroethyl)sulfamoyl)phenylamino)propan-2-yl)benzamide], the IC50 in experiment [1] was under 0.05 µM; in experiment [2] (setting [3]) it was 0.05 to 1 µM.
Turning to `CC(C)(NS(=O)(=O)c1ccc(NC(=O)[C@H](Cc2ccccc2)NC(=O)c2ccc(F)cc2)cc1)C(F)(F)F` [Compound I-25, (S)-4-fluoro-N-(1-oxo-3-phenyl-1-(4-(N-(1,1,1-trifluoro-2-methylpropan-2-yl)sulfamoyl)phenylamino)propan-2-yl)benzamide], the IC50 in experiment [1] and in experiment [2] (setting [4]) was under 0.05 µM in each case.
For the compound `CNS(=O)(=O)c1ccc(NC(=O)[C@H](Cc2ccccc2)NC(=O)c2ccc(F)cc2)cc1` [Compound I-30, (S)-4-fluoro-N-(1-(4-(N-methylsulfamoyl)phenylamino)-1-oxo-3-phenylpropan-2-yl)benzamide], the IC50 in experiment [1] and in experiment [2] (setting [3]) was 0.05 to 1 µM in each case.
`CN1CCC(NS(=O)(=O)c2ccc(NC(=O)[C@H](Cc3ccccc3)NC(=O)c3ccc(F)cc3)cc2)CC1` [Compound I-33, (S)-4-fluoro-N-(1-(4-(N-(1-methylpiperidin-4-yl)sulfamoyl)phenylamino)-1-oxo-3-phenylpropan-2-yl)benzamide]: the IC50 in experiment [1] and in experiment [2] (setting [3]) was 0.05 to 1 µM throughout.
Consider `CN(C(=O)c1ccc(F)cc1)[C@@H](Cc1ccccc1)C(=O)Nc1ccc(S(=O)(=O)NC2COC2)cc1` [Compound I-70, (S)-4-fluoro-N-methyl-N-(1-(4-(N-oxetan-3-ylsulfamoyl)phenylamino)-1-oxo-3-phenylpropan-2-yl)benzamide], for which the IC50 in experiment [1] and in experiment [2] (setting [3]) was 1 to 10 µM each time.
Turning to `CN(C(=O)c1ccc(F)cc1)[C@@H](Cc1ccccc1)C(=O)Nc1ccc(S(=O)(=O)NC23CC(C2)C3)cc1` [Compound I-72, (S)-N-(1-(4-(N-bicyclo[1.1.1]pentan-1-ylsulfamoyl)phenylamino)-1-oxo-3-phenylpropan-2-yl)-4-fluoro-N-methylbenzamide], the IC50 in experiment [1] and in experiment [2] (setting [3]) was 1 to 10 µM each time.
In the case of `O=C(N[C@@H](Cc1ccccc1)C(=O)Nc1ccc(S(=O)(=O)NC23CC(C2)C3)cc1)c1ccc(F)cn1` [Compound I-73, (S)-N-(1-(4-(N-bicyclo[1.1.1]pentan-1-ylsulfamoyl)phenylamino)-1-oxo-3-phenylpropan-2-yl)-5-fluoropicolinamide], the IC50 is under 0.05 µM in experiment [1] and 0.05 to 1 µM in experiment [2] (setting [3]).
In the case of `O=C(N[C@@H](Cc1ccccc1)C(=O)Nc1ccc(S(=O)(=O)NC2CCCC2)cc1)c1ccc(F)cn1` [Compound I-74, (S)-N-(1-(4-(N-cyclopentylsulfamoyl)phenylamino)-1-oxo-3-phenylpropan-2-yl)-5-fluoropicolinamide], the IC50 in experiment [1] and in experiment [2] (setting [3]) was 0.05 to 1 µM in each case.
Turning to `O=C(N[C@@H](Cc1ccccc1)C(=O)Nc1ccc(S(=O)(=O)NC2CCC2)cc1)c1ccc(F)cn1` [Compound I-75, (S)-N-(1-(4-(N-cyclobutylsulfamoyl)phenylamino)-1-oxo-3-phenylpropan-2-yl)-5-fluoropicolinamide], the IC50 in experiment [1] and in experiment [2] (setting [3]) was 0.05 to 1 µM in each case.
With `O=C(N[C@@H](Cc1ccccc1)C(=O)Nc1ccc(S(=O)(=O)NC23CC(C2)C3)cc1)c1ccccn1` [Compound I-76, (S)-N-(1-(4-(N-bicyclo[1.1.1]pentan-1-ylsulfamoyl)phenylamino)-1-oxo-3-phenylpropan-2-yl)picolinamide], the IC50 in experiment [1] lay in the range of 0.05 to 1 µM; in experiment [2] (setting [3]), 1 to 10 µM.
Take `O=C(N[C@@H](Cc1ccccc1)C(=O)Nc1ccc(S(=O)(=O)NC2CCCC2)cc1)c1ccccn1` [Compound I-77, (S)-N-(1-(4-(N-cyclopentylsulfamoyl)phenylamino)-1-oxo-3-phenylpropan-2-yl)picolinamide]: the IC50 in experiment [1] and in experiment [2] (setting [3]) was 0.05 to 1 µM in each case.
Regarding `O=C(N[C@@H](Cc1ccccc1)C(=O)Nc1ccc(S(=O)(=O)NC2CCC2)cc1)c1ccccn1` [Compound I-78, (S)-N-(1-(4-(N-cyclobutylsulfamoyl)phenylamino)-1-oxo-3-phenylpropan-2-yl) picolinamide], the IC50 is 0.05 to 1 µM in experiment [1] and 1 to 10 µM in experiment [2] (setting [3]).
Turning to `O=C(N[C@@H](Cc1ccccc1)C(=O)Nc1ccc(S(=O)(=O)NC23CC(C2)C3)cc1)c1cccnc1` [Compound I-79, (S)-N-(1-(4-(N-bicyclo[1.1.1]pentan-1-ylsulfamoyl)phenylamino)-1-oxo-3-phenylpropan-2-yl)nicotinamide], the IC50 in experiment [1] lay in the range of 0.05 to 1 µM; in experiment [2] (setting [3]) it was 1 to 10 µM.
For the compound `O=C(N[C@@H](Cc1ccccc1)C(=O)Nc1ccc(S(=O)(=O)NC2CCC2)cc1)c1cccnc1` [Compound I-81, (S)-N-(1-(4-(N-cyclobutylsulfamoyl)phenylamino)-1-oxo-3-phenylpropan-2-yl)nicotinamide], the IC50 in experiment [1] and in experiment [2] (setting [3]) was 0.05 to 1 µM in each case.
In the case of `CC(C)(C)NS(=O)(=O)c1ccc(NC(=O)[C@H](Cc2ccccc2)N2CCc3ccccc3C2=O)cc1` [Compound I-84, (S)-N-(4-(N-tert-butylsulfamoyl)phenyl)-2-(1-oxo-3,4-dihydroisoquinolin-2(1H)-yl)-3-phenylpropanamide], the IC50 in experiment [1] and in experiment [2] (setting [3]) was 0.05 to 1 µM in each case.
As for `CC(C)(C)NS(=O)(=O)c1ccc(NC(=O)[C@H](Cc2ccccc2)NC(=O)c2ccc(F)cn2)cc1` [Compound I-85, (S)-N-(1-(4-(N-tert-butylsulfamoyl)phenylamino)-1-oxo-3-phenylpropan-2-yl)-5-fluoropicolinamide], the IC50 in experiment [1] is 0.05 to 1 µM; in experiment [2] (setting [4]), under 0.05 µM.
In the case of `CC(C)(C)NS(=O)(=O)c1ccc(NC(=O)[C@H](Cc2ccccc2)NC(=O)c2cccnc2)cc1` [Compound I-87, (S)-N-(1-(4-(N-tert-butylsulfamoyl)phenylamino)-1-oxo-3-phenylpropan-2-yl)nicotinamide], the concentration for half-maximal inhibition (IC50) in experiment [1] and in experiment [2] (setting [3]) was 0.05 to 1 µM in each case.
Consider `CC(C)(C)NS(=O)(=O)c1ccc(NC(=O)[C@H](Cc2ccccc2)NC(=O)c2cccc(F)c2)cc1` [Compound I-88, (S)-N-(1-(4-(N-tert-butylsulfamoyl)phenylamino)-1-oxo-3-phenylpropan-2-yl)-3-fluorobenzamide], for which the IC50 in experiment [1] is under 0.05 µM; in experiment [2] (setting [3]), 0.05 to 1 µM.
As to `CN(C(=O)c1ccc(F)cc1)[C@@H](Cc1cccnc1)C(=O)Nc1ccc(S(=O)(=O)NC2COC2)cc1` [Compound I-89, (S)-4-fluoro-N-methyl-N-(1-(4-(N-oxetan-3-ylsulfamoyl)phenylamino)-1-oxo-3-(pyridin-3-yl)propan-2-yl)benzamide], the IC50 in experiment [1] was 1 to 10 µM; in experiment [2] (setting [4]) it was over 10 µM.
Consider `CCNS(=O)(=O)c1ccc(NC(=O)[C@H](Cc2cccnc2)N(C)C(=O)c2ccc(F)cc2)cc1` [Compound I-90, (S)-N-(1-(4-(N-ethylsulfamoyl)phenylamino)-1-oxo-3-(pyridin-3-yl)propan-2-yl)-4-fluoro-N-methylbenzamide], for which the IC50 in experiment [1] was over 10 µM; in experiment [2] (setting [3]), 1 to 10 µM.
For `CN(C(=O)c1ccc(F)cc1)[C@@H](Cc1cccnc1)C(=O)Nc1ccc(S(=O)(=O)NC(C)(C)C)cc1` [Compound I-91, (S)-N-(1-(4-(N-tert-butylsulfamoyl)phenylamino)-1-oxo-3-(pyridin-3-yl)propan-2-yl)-4-fluoro-N-methylbenzamide], the IC50 in experiment [1] and in experiment [2] (setting [3]) was 0.05 to 1 µM throughout.
Consider `CN(C(=O)c1ccc(F)cc1)[C@@H](Cc1cccnc1)C(=O)Nc1ccc(S(=O)(=O)NC23CC(C2)C3)cc1` [Compound I-92, (S)-N-(1-(4-(N-bicyclo[1.1.1]pentan-1-ylsulfamoyl)phenylamino)-1-oxo-3-(pyridin-3-yl)propan-2-yl)-4-fluoro-N-methylbenzamide], for which the IC50 in experiment [1] and in experiment [2] (setting [3]) was 1 to 10 µM throughout.
In the case of `O=C(N[C@@H](Cc1ccccc1)C(=O)Nc1ccc(S(=O)(=O)NC2COC2)cc1)c1cccc(F)c1` [Compound I-94, (S)-3-fluoro-N-(1-(4-(N-oxetan-3-ylsulfamoyl)phenylamino)-1-oxo-3-phenylpropan-2-yl)benzamide], the IC50 in experiment [1] and in experiment [2] (setting [3]) was 0.05 to 1 µM throughout.
